pEC50, pIC50: −log10 of the molar value. Values joined by “and” are separate entries in the source; they are usually repeats but may differ in a detail not shown here. Equal values may be shown once.
What was measured:
[1] = system: rat uterine decidualization; assay: Rat decidualization assay; format: in vivo; conditions: for EC50 for uterine wet weight (decidual response), individual studies: ovariectomized female Sprague-Dawley rats, once daily for seven days
Experimental: b. Animals (RACUC Protocol #5002)
The animals are treated once daily for seven days.
Uteri are removed and trimmed of fat.
Body weight: Mean total animal body weight (default-kg)
Decidual response: [(D−C)/C]×100%

[2] = system: acne vulgaris; assay: Treatment of acne vulgaris in a human patient; format: in vivo; conditions: oral tablet about 20 mg daily
Experimental: A human patient having acne vulgaris is treated according to the present invention. Specifically, 5-(4,4-dimethyl-2-thioxo-1,4-dihydro-2H-3,1-benzoxazin-6-yl)-1-methyl-1H-pyrrole-2-carbonitrile is orally delivered to the patient daily. Delivery is in the form of a tablet formulated to contain about 20 mg of 5-(4,4-dimethyl-2-thioxo-1,4-dihydro-2H-3,1-benzoxazin-6-yl)-1-methyl-1H-pyrrole-2-carbonitrile.

[3] = system: eczema; assay: Conditioning the skin of a human patient with severe eczema; format: in vivo; conditions: about 50 mg daily
Experimental: A human patient having a severe form of eczema is treated according to the present invention. Specifically, about 50 mg of 5-(4,4-dimethyl-2-thioxo-1,4-dihydro-2H-3,1-benzoxazin-6-yl)-1-methyl-1H-pyrrole-2-carbonitrile is delivered to the patient daily.

[4] = molecular target: T1, androgen receptor (AR) (Mus musculus, UniProt P19091); assay: Androgen receptor agonistic/antagonistic activity, PRE-tk-luciferase reporter in L929 cells; format: cell-based
T1 construct: L929 cells which express the AR but not the PR; endogenous in cells; host or cells: L929 cells infected with an adenovirus PRE-tk-luciferase reporter
T1 sequence (P19091 1-899): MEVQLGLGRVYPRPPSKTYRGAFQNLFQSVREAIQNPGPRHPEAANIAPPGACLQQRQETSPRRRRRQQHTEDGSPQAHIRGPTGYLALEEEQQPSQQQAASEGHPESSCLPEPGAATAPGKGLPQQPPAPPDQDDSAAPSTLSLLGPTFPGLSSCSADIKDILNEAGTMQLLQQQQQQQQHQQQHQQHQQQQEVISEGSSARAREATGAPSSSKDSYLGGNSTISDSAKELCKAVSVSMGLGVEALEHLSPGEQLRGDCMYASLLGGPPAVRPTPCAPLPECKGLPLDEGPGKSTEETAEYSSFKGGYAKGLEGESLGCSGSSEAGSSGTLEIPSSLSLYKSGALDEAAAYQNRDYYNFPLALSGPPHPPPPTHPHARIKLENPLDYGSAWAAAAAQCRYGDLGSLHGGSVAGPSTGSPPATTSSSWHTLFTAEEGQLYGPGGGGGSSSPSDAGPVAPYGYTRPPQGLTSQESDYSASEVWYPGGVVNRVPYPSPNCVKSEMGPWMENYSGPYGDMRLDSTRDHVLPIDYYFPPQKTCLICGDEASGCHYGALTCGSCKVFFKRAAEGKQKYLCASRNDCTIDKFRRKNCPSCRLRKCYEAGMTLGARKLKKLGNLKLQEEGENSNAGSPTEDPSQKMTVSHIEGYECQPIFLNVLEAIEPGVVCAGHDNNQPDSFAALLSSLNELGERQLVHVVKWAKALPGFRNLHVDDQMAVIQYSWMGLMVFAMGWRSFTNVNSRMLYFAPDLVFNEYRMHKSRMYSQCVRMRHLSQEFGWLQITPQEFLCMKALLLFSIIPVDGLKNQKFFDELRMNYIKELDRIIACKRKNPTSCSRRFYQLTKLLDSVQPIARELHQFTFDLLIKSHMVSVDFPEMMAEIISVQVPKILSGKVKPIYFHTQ
Experimental: The androgen receptor (AR) agonistic and antagonistic activity of the compositions of the invention in the L929 cells which express the AR but not the PR was evaluated as described in Zhang et al., Steroids, 65(10-11): 637-643 (October-November 2000).
Cells were plated in 96-well plates at 25,000 cells/well in DMEM (BioWhittaker) with 10% (v/v) fetal bovine serum (FBS). The next day, cells were infected with the adenovirus PRE-tk-luciferase reporter construct (2×10^9 pfu/ml particles) and kept in DMEM containing 10% charcoal stripped FBS for an additional 24 hours. […] To test the anti-androgenic activity, cells were co-treated with 3 nM DHT. Luciferase activity was measured 24 hours following the treatment.

[5] = system: alkaline phosphatase activity in T47D cells; assay: T47D cell alkaline phosphatase assay; format: cell-based; conditions: Homo sapiens, agonist mode, read-out: EC50 in the T47D alkaline phosphatase assay, test compounds
Experimental: 4. T47D Cell Alkaline Phosphatase Assay
The purpose of this assay is to identify progestins or antiprogestins by determining a compound's effect on alkaline phosphatase activity in T47D cells.
a. Culture Medium: DMEM:F12 (1:1) (GIBCO, BRL) supplemented with 5% (v/v) charcoal stripped fetal bovine serum (not heat-inactivated), 100 U/ml penicillin, 100 μg/ml streptomycin, and 2 mM GlutaMax (GIBCO, BRL).
b. Alkaline Phosphatase Assay Buffer:
I. 0.1 M Tris-HCl, pH 9.8, containing 0.2% Triton X-100
II. 0.1 M Tris-HCl, pH 9.8 containing 4 mM p-nitrophenyl phosphate (Sigma).
c. Cell Culture and Treatment:
Frozen T47D cells were thawed in a 37° C. water bath and diluted to 280,000 cells/ml in culture medium. To each well in a 96-well plate (Falcon, Becton Dickinson Labware), 180 μl of diluted cell suspension was added. Twenty μl of reference or test compounds diluted in the culture medium was then added to each well. […] The cells were incubated at 37° C. in a 5% CO2/humidified atmosphere for 24 hr.
d. Alkaline Phosphatase Enzyme Assay:
At the end of treatment, the medium was removed from the plate and […] of assay buffer I was added to each well. The plates were shaken in a titer plate shaker for 15 min. Then 150 μl of assay buffer II was added to each well.
e. Analysis of Results: Analysis of Dose-response Data
For reference and test compounds, a dose response curve is generated for dose (X-axis) vs. the rate of enzyme reaction (slope) (Y-axis). Square root-transformed data are used for analysis of variance and nonlinear dose response curve fitting for both agonist and antagonist modes. Huber weighting is used to downweight the effects of outliers. EC50 or IC50 values are calculated from the retransformed values.

[6] = system: T47D cells; assay: T47D cell proliferation assay (BrdU incorporation); format: cell-based
Experimental: 3. T47D cell Proliferation Assay
The objective of this assay is the determination of progestational and antiprogestational potency by using a cell proliferation assay in T47D cells. A compound's effect on DNA synthesis in T47D cells is measured.
a. Growth Medium: DMEM:F12 (1:1) (GIBCO, BRL) supplemented with 10% (v/v) fetal bovine serum (not heat-inactivated), 100 U/ml penicillin, […], and 2 mM GlutaMax (GIBCO, BRL).
b. Treatment Medium: Minimum Essential Medium (MEM) (#51200-038GIBCO, BRL) phenol red-free supplemented with 0.5% charcoal stripped fetal bovine serum, 100 U/ml penicillin, […] streptomycin, and 2 mM GlutaMax (GIBCO, BRL).
Stock T47 D cells are maintained in growth medium. […]
At the end of BrdU labeling, the medium is removed and BrdU incorporation is measured using a cell proliferation ELISA kit (#RPN 250, Amersham Life Science) according to manufacturer's instructions. […] Then 25 μl of 1 M sulfuric acid is added to each well to stop color reaction and optical density is read in a plate reader at 450 nm within 5 min.
Square root-transformed data are used for analysis of variance and nonlinear dose response curve fitting for both agonist and antagonist modes. […] EC50 or IC50 values are calculated from the retransformed values. […]

pEC50 [5] | Structure (SMILES) | EC50 for uterine wet weight (decidual response), individual studies ([1]; s.c.) | other results
 | C#C[C@]1(O)CC[C@H]2[C@@H]3CCC4=CC(=O)CC[C@@H]4[C@H]3C(=C)C[C@@]21CC [3-Ketodesogestrel] | 0.10 mg/kg, s.c. and 0.06 mg/kg, s.c. and 0.11 mg/kg, s.c. | Estimated average EC50 for uterine weight (decidual response) ([1]; average of dose-response curves, ovariectomized rats, s.c.): 0.10 mg/kg, s.c.
 | Cn1c(C#N)ccc1-c1ccc2c(c1)C(C)(C)OC(=S)N2 [5-(4,4-dimethyl-2-thioxo-1,4-dihydro-2H-3,1-benzoxazin-6-yl)-1-methyl-1H-pyrrole-2-carbonitrile] |  | Acne vulgaris outcome ([2]; after about 24 weeks): improvement in the acne vulgaris is observed; Presence of lesions caused by acne vulgaris ([2]; forty-five to sixty days after the treatment): a decrease in the presence of lesions caused by acne vulgaris is noticed; Eczema outcome ([3]; after about 12 weeks): improvement in the eczema is observed; Dryness of the skin ([3]; thirty days after the treatment): a decrease in the dryness affected to the skin is noticed; AR agonistic activity ([4]; at the maximum concentration tested (10 nM)): only marginal agonistic activity; AR antagonistic activity ([4]; nine point dose response, co-treated with 3 nM DHT): significant antagonistic activity
9.30 | Cn1c(C#N)ccc1-c1ccc2c(c1)C1(CCC1)OC(=S)N2 [Example 1, 1-Methyl-5-(2-thioxo-1,2-dihydrospiro[3,1-benzoxazine-4,1′-cyclobutan]-6-yl)-1H-pyrrole-2-carbonitrile] |  | 
10.00 | CCC1(CC)OC(=S)Nc2ccc(-c3ccc(C#N)n3C)cc21 [Example 2, 5-(4,4-Diethyl-2-thioxo-1,4-dihydro-2H-3,1-benzoxazin-6-yl)-1-methyl-1H-pyrrole-2-carbonitrile] |  | 
10.00 | CCC1(C)OC(=S)Nc2ccc(-c3ccc(C#N)n3C)cc21 (centres unmarked) [Example 3, 5-(4-ethyl-4-methyl-2-thioxo-1,4-dihydro-2H-3,1-benzoxazin-6-yl)-1-methyl-1H-pyrrole-2-carbonitrile] |  | 
9.52 | Cn1c(C#N)ccc1-c1ccc2c(c1)C1(CCCCC1)OC(=S)N2 [Example 4, 1-Methyl-5-(2-thioxo-1,2-dihydrospiro[3,1-benzoxazine-4,1′-cyclohexan]-6-yl)-1H-pyrrole-2-carbonitrile] |  | 
9.30 | Cn1c(C#N)ccc1-c1ccc2c(c1)C1(CCCC1)OC(=S)N2 [Example 5, 1-Methyl-5-(2-thioxo-1,2-dihydrospiro [3,1-benzoxazine-4,1′-cyclopentan]-6-yl)-1H-pyrrole-2-carbonitrile] |  | 
> 8.00 | Cn1c(C#N)ccc1-c1ccc2c(c1)C(C(F)(F)F)(C(F)(F)F)OC(=S)N2 [Example 6, 1-Methyl-5-[2-thioxo-4,4-bis(trifluoromethyl)-1,4-dihydro-2H-3,1-benzoxazin-6-yl]-1H-pyrrole-2-carbonitrile] |  | 
 | C#C[C@]1(O)CC[C@H]2[C@@H]3CCC4=CC(=O)CC[C@@H]4[C@H]3CC[C@@]21CC [Levonorgestrel] | 0.08 mg/kg, s.c. and 0.12 mg/kg, s.c. and 0.09 mg/kg, s.c. (2×) | 
 | CC(=O)O[C@]1(C(C)=O)CC[C@H]2[C@@H]3C[C@H](C)C4=CC(=O)CC[C@]4(C)[C@H]3CC[C@@]21C [MPA, medroxyprogesterone acetate] | 0.42 mg/kg, s.c. and 0.39 mg/kg, s.c. (2×) | 
 | CC(=O)[C@H]1CC[C@H]2[C@@H]3CCC4=CC(=O)CC[C@]4(C)[C@H]3CC[C@]12C [Progesterone] | 5.50 mg/kg, s.c. | 
 | CC#C[C@]1(O)CC[C@H]2[C@@H]3CCC4=CC(=O)CCC4=C3[C@@H](c3ccc(N(C)C)cc3)C[C@@]21C [RU486] |  | IC50 for uterine weight (decrease in EC50 progesterone induced decidual response) ([1]; ovariectomized rats, p.o., with EC50 dose of progesterone): 0.21 mg/kg, p.o. and 0.14 mg/kg, p.o.; pIC50 ([6]; read-out: IC50 (half-maximal decrease in trimegestone induced BrdU incorporation), antagonist mode, in the presence of 0.03 nM trimegestone): 10.80 and 10.74
 | C[C@H](O)C(=O)[C@@]1(C)CC[C@H]2[C@@H]3CCC4=CC(=O)CCC4=C3CC[C@@]21C [Trimegestone] |  | pEC50 ([6]; agonist mode, individual studies, read-out: EC50 (half-maximal increase in BrdU incorporation)): 10.77 and 10.85 and 10.72
